# Results from US20260193295A1, “CILAGICIN COMPOUNDS AND METHODS OF USE THEREOF” (priority 2022, published 2026).
# Read-outs that look alike come from different tables or passages of the source. Positions of bridges follow the written chain, without caps; N, C: chain ends. Non-standard residues stand in square brackets, D forms with d. Residues, ends and D or L forms follow the SMILES beside them. *: point of attachment. Ileψ(thiazoline)Cys = CC[C@H](C)[C@H](N)C1=N[C@H](C(=O)*)CS1; Hexanoyl(6-Ph) = O=C(CCCCCc1ccccc1)*; X2 = O=C(c1cc2ccccc2n1Cc1ccccc1)*; dOrn = NCCC[C@@H](N)C(=O)O; X1 = CC[C@H](C)CCCCC(=O)*; X3 = Cc1ccccc1/C=C/C(=O)*; dDab = NCC[C@@H](N)C(=O)O; Dab = NCC[C@H](N)C(=O)O
# What was measured:
# Streptococcus agalactiae = format: cell-based
# Procedure: (§1) MIC assay were conducted using the protocol recommended by the Clinical and Laboratory Standards Institute.(37) Culture conditions (temperature, medium) are detailed in Table 3. All compounds were dissolved in sterile DMSO (ATCC, USA) to give a concentration of 6.4 mg/mL. Vancomycin hydrochloride was used as positive controls. Tested compounds were serially diluted across 96-well plates using a 2-fold serial dilution in a volume of 50 μL. An overnight culture of an assay strain was diluted 5,000-fold in fresh medium. 50 μL of this dilution was added into each well, giving a final volume of 100 μL in each well. Compounds were assayed at concentrations ranging from 64 μg/mL to 0.06 μg/mL. The top and bottom rows of each plate were filled with 100 μL of media to avoid edge effects. […] For Clostridium difficile plates were statically incubated under anaerobic conditions (Vinyl anaerobic chamber, 37° C., 5% H2, 5% CO2, 90% N2). For Streptococcus pneumoniae plates were statically incubated under aerobic conditions supplemented with 5% C02 (37° C.). All MICs were performed in technical duplicate (n=2) and repeated three independent times (n=3).
# Staphylococcus aureus = format: cell-based
# Procedure: as §1
# Streptococcus pyrogens = format: cell-based
# Procedure: as §1
# Streptococcus pneumoniae = format: cell-based
# Procedure: as §1
# Enterococcus faecium = format: cell-based
# Procedure: as §1
# S. aureus USA300 = test: Resistance studies (daily serial passage at sub-MIC); format: cell-based, Staphylococcus aureus; details: daily serial passage at sub-MIC levels of antibiotic
# Procedure: A single colony of S. aureus USA300 was inoculated in 5 mL LB broth and grown overnight at 37° C. with continuous shaking (200 rpm). The overnight culture was then diluted 1:5,000 into fresh LB. 50 μL aliquots of dilute cells were transferred into individual wells of 96-well plates containing 50 μL of serially diluted cilagicin, amphomycin (AG Scientific, USA) or bacitracin (Sigma, USA). Plates were statically incubated at 37° C. After 24 hours, the MIC was recorded. […] The MIC was determined as described above. This process was repeated daily for 25 days. For bacitracin, the LB medium was supplemented with 50 μg/mL ZnCl2. For amphomycin, the medium was supplemented with 100 μg/mL CaCl2-2H2O. Experiments were performed three independent times (n=3).
# [1] = tested on: vancomycin-resistant Enterococci clinical isolates; details: cited from earlier work
# [2] = Enterococci clinical isolate code 781
# [3] = Enterococci clinical isolate code 782
# [4] = Enterococci clinical isolate code 783
# [5] = Enterococci clinical isolate code 784
# [6] = Enterococci clinical isolate code 785
# [7] = Enterococci clinical isolate code 786
# [8] = Enterococci clinical isolate code 787
# [9] = Enterococci clinical isolate code 788
# [10] = Enterococci clinical isolate code 789
# [11] = Enterococci clinical isolate code 790
# [12] = Enterococci clinical isolate code 791
# [13] = Enterococci clinical isolate code 792
# [14] = Enterococci clinical isolate code 793
# [15] = Enterococci clinical isolate code 794
# [16] = Enterococci clinical isolate code 795
# [17] = Enterococci clinical isolate code 796
# [18] = Enterococci clinical isolate code 797
# [19] = Enterococci clinical isolate code 798
# [20] = Enterococci clinical isolate code 799
# [21] = Enterococci clinical isolate code 800
# [22] = Enterococci clinical isolate code 801
# [23] = Enterococci clinical isolate code 802
# [24] = Enterococci clinical isolate code 803
# [25] = Enterococci clinical isolate code 804
# [26] = Enterococci clinical isolate code 805
# [27] = Enterococci clinical isolate code 806
# [28] = Enterococci clinical isolate code 807
# [29] = Enterococci clinical isolate code 808
# [30] = Enterococci clinical isolate code 809
# [31] = Enterococci clinical isolate code 810
molecule,measurement,setting,value
Cc1ccccc1/C=C/C(=O)N[C@H](CO)C(=O)N[C@@H]1C(=O)N[C@H](CCN)C(=O)N[C@@H](CC(=O)O)C(=O)NCC(=O)N[C@H](CC(N)=O)C(=O)N[C@H](CC(=O)O)C(=O)NCC(=O)N[C@@H](Cc2ccc(O)cc2)C(=O)N[C@@H](C(C)C)C(=O)N[C@@H](CCN)C(=O)N[C@@H](Cc2ccccc2)C(=O)O[C@@H]1C [Cilagicin L6] (X3-[dS]T[dDab]DG[dN][dD]GYV[Dab]F; ester 2-C),MIC,Streptococcus agalactiae,64 µg/mL
same,MIC,Staphylococcus aureus,64 µg/mL
same,MIC,Streptococcus pyrogens,4 µg/mL
same,MIC,Streptococcus pneumoniae,32 µg/mL
same,MIC,Enterococcus faecium,>64 µg/mL
CC[C@H](C)CCCCC(=O)N[C@H](CO)C(=O)N[C@@H]1C(=O)N[C@H](CCN)C(=O)N[C@@H](CC(=O)O)C(=O)NCC(=O)N[C@H](CC(N)=O)C(=O)N[C@H](CC(=O)O)C(=O)NCC(=O)N[C@@H](Cc2ccc(O)cc2)C(=O)N[C@@H](C(C)C)C(=O)N[C@@H](CCN)C(=O)N[C@@H](Cc2ccccc2)C(=O)O[C@@H]1C [Cilagicin L5] (X1-[dS]T[dDab]DG[dN][dD]GYV[Dab]F; ester 2-C),MIC,Streptococcus agalactiae,8 µg/mL
same,MIC,Staphylococcus aureus,4 µg/mL
same,MIC,Streptococcus pyrogens,1 µg/mL
same,MIC,Streptococcus pneumoniae,4 µg/mL
same,MIC,Enterococcus faecium,64 µg/mL
amphomycin,development of resistance by S. aureus,S. aureus USA300,rapidly developed resistance
CC[C@H](C)[C@H](N)C1=N[C@H](C(=O)N[C@@H](CC(C)C)C(=O)N[C@H](CCC(=O)O)C(=O)N[C@H](C(=O)N[C@H]2CCCCNC(=O)[C@H](CC(N)=O)NC(=O)[C@@H](CC(=O)O)NC(=O)[C@H](Cc3cnc[nH]3)NC(=O)[C@@H](Cc3ccccc3)NC(=O)[C@H]([C@@H](C)CC)NC(=O)[C@@H](CCCN)NC2=O)[C@@H](C)CC)CS1 [bacitracin] ({Ileψ(thiazoline)Cys}-L[dE]IK[dOrn]I[dF]H[dD]N; lactam 4-C),development of resistance by S. aureus,S. aureus USA300,rapidly developed resistance
CC(C)[C@@H]1NC(=O)[C@H](Cc2ccc(O)cc2)NC(=O)CNC(=O)[C@@H](CC(=O)O)NC(=O)[C@@H](CC(N)=O)NC(=O)CNC(=O)[C@H](CC(=O)O)NC(=O)[C@@H](CCN)NC(=O)[C@@H](NC(=O)[C@@H](CO)NC(=O)CCCCCc2ccccc2)[C@@H](C)OC(=O)[C@H](Cc2ccccc2)NC(=O)[C@H](CCN)NC1=O [Cilagicin L3] ({Hexanoyl(6-Ph)}-[dS]T[dDab]DG[dN][dD]GYV[Dab]F; ester 2-C),MIC,Streptococcus agalactiae,16 µg/mL
same,MIC,Staphylococcus aureus,8 µg/mL
same,MIC,Streptococcus pyrogens,1 µg/mL
same,MIC,Streptococcus pneumoniae,4 µg/mL
same,MIC,Enterococcus faecium,64 µg/mL
Teicoplanin,MIC,[1]; [2],>64 µg/mL
same,MIC,[1]; [3],0.5 µg/mL
same,MIC,[1]; [4],2 µg/mL
same,MIC,[1]; [5],0.5 µg/mL
same,MIC,[1]; [6],0.5 µg/mL
same,MIC,[1]; [7],0.25 µg/mL
same,MIC,[1]; [8],>64 µg/mL
same,MIC,[1]; [9],1 µg/mL
same,MIC,[1]; [10],>64 µg/mL
same,MIC,[1]; [11],1 µg/mL
same,MIC,[1]; [12],0.5 µg/mL
same,MIC,[1]; [13],1 µg/mL
same,MIC,[1]; [14],0.5 µg/mL
same,MIC,[1]; [15],64 µg/mL
same,MIC,[1]; [16],0.5 µg/mL
same,MIC,[1]; [17],1 µg/mL
same,MIC,[1]; [18],1 µg/mL
same,MIC,[1]; [19],1 µg/mL
same,MIC,[1]; [20],0.5 µg/mL
same,MIC,[1]; [21],0.5 µg/mL
same,MIC,[1]; [22],1 µg/mL
same,MIC,[1]; [23],64 µg/mL
same,MIC,[1]; [24],>64 µg/mL
same,MIC,[1]; [25],0.5 µg/mL
same,MIC,[1]; [26],0.5 µg/mL
same,MIC,[1]; [27],1 µg/mL
same,MIC,[1]; [28],1 µg/mL
same,MIC,[1]; [29],0.5 µg/mL
same,MIC,[1]; [30],64 µg/mL
same,MIC,[1]; [31],0.5 µg/mL
Gentamicin,MIC,[1]; [2],≤500 µg/mL
same,MIC,[1]; [3],>500 µg/mL
same,MIC,[1]; [4],>500 µg/mL
same,MIC,[1]; [5],≤500 µg/mL
same,MIC,[1]; [6],>500 µg/mL
same,MIC,[1]; [7],>500 µg/mL
same,MIC,[1]; [8],≤500 µg/mL
same,MIC,[1]; [9],≤500 µg/mL
same,MIC,[1]; [10],>500 µg/mL
same,MIC,[1]; [11],≤500 µg/mL
same,MIC,[1]; [12],≤500 µg/mL
same,MIC,[1]; [13],>500 µg/mL
same,MIC,[1]; [14],≤500 µg/mL
same,MIC,[1]; [15],>500 µg/mL
same,MIC,[1]; [16],>500 µg/mL
same,MIC,[1]; [17],≤500 µg/mL
same,MIC,[1]; [18],≤500 µg/mL
same,MIC,[1]; [19],≤500 µg/mL
same,MIC,[1]; [20],>500 µg/mL
same,MIC,[1]; [21],>500 µg/mL
same,MIC,[1]; [22],>500 µg/mL
same,MIC,[1]; [23],>500 µg/mL
same,MIC,[1]; [24],>500 µg/mL
same,MIC,[1]; [25],>500 µg/mL
same,MIC,[1]; [26],≤500 µg/mL
same,MIC,[1]; [27],≤500 µg/mL
same,MIC,[1]; [28],≤500 µg/mL
same,MIC,[1]; [29],≤500 µg/mL
same,MIC,[1]; [30],≤500 µg/mL
same,MIC,[1]; [31],≤500 µg/mL
CC(C)[C@@H]1NC(=O)[C@H](Cc2ccc(O)cc2)NC(=O)CNC(=O)[C@@H](CC(=O)O)NC(=O)[C@@H](CC(N)=O)NC(=O)CNC(=O)[C@H](CC(=O)O)NC(=O)[C@@H](CCN)NC(=O)[C@@H](NC(=O)[C@@H](CO)NC(=O)c2cc3ccccc3n2Cc2ccccc2)[C@@H](C)OC(=O)[C@H](Cc2ccccc2)NC(=O)[C@H](CCN)NC1=O [Cilagicin L4] (X2-[dS]T[dDab]DG[dN][dD]GYV[Dab]F; ester 2-C),MIC,Staphylococcus aureus,8 µg/mL
